# Source: patent US20130210664A1, “Methods for the Identification of Methyltransferase Interacting Molecules and for the Purification of Methyltransferase Proteins” (Cellzome AG, priority 2010, published 2013)
# Key:
# Experiment in all cases: Competition binding bead assay with immobilized compound 6 in cell lysate, iTRAQ LC-MS/MS quantitation
# SETD7 = molecular target: T1, SETD7 (Homo sapiens, UniProt Q8WTS6); details: SETD7 (IPI00028366.2); 200 μM free compound 6; mixed Jurkat and Ramos cell lysates; versus DMSO solvent control
# T1 construct: endogenous in cells; host or cells: Jurkat (ATCC TIB-152) and Ramos (ATCC CRL-1596) cells, mixed lysate
# T1 sequence (Q8WTS6 1-366): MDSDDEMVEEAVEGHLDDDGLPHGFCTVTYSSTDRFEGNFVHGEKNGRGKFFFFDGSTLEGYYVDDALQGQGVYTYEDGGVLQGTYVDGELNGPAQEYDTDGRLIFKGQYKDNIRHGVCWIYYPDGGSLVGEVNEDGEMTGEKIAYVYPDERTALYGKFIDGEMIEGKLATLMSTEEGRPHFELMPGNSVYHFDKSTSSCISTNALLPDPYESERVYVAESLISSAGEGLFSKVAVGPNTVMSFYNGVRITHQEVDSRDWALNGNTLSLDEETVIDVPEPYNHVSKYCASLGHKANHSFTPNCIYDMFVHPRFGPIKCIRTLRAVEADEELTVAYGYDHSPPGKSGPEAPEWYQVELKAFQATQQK
# Experimental: (§1) To the first aliquot of cell lysate 200 μM of the free compound 6 was added and allowed to bind to proteins in the lysate. Then the affinity matrix with the immobilized compound (Example 1) was added to capture proteins that were not interacting with the previously added free compound. Beads were separated from the lysate and bead bound proteins were eluted in SDS sample buffer and subsequently separated by SDS-Polyacrylamide gel electrophoresis. Suitable gel bands were cut out and subjected to in-gel proteolytic digestion with trypsin. The second lysate aliquot was processed identically, however no free compound was added (DMSO solvent control). Peptides originating from samples 1 and 2 were labeled with iTRAQ reagents (iTRAQ 114 and iTRAQ 116) and the combined samples were analyzed with a nano-flow liquid chromatography system coupled online to a tandem mass spectrometer (LC-MS/MS) experiment followed by iTRAQ reporter ion quantification in the MS/MS spectra (Ross et al., 2004. Mol. Cell. Proteomics 3(12):1154-1169). Further experimental protocols can be found in WO2006/134056 and a previous publication (Bantscheff et al., 2007. Nature Biotechnology 25, 1035-1044).
# (§2) The identified methyltransferases are shown in Table 5 including the percent competition values for the sample to which 200 μM free compound had been added. […]
# SMYD5 = molecular target: T2, SMYD5 (Homo sapiens, UniProt Q6GMV2); details: SMYD5 (IPI00013789.5); 200 μM free compound 6; mixed Jurkat and Ramos cell lysates; versus DMSO solvent control
# T2 construct: endogenous in cells; host or cells: Jurkat (ATCC TIB-152) and Ramos (ATCC CRL-1596) cells, mixed lysate
# T2 sequence (Q6GMV2 1-418): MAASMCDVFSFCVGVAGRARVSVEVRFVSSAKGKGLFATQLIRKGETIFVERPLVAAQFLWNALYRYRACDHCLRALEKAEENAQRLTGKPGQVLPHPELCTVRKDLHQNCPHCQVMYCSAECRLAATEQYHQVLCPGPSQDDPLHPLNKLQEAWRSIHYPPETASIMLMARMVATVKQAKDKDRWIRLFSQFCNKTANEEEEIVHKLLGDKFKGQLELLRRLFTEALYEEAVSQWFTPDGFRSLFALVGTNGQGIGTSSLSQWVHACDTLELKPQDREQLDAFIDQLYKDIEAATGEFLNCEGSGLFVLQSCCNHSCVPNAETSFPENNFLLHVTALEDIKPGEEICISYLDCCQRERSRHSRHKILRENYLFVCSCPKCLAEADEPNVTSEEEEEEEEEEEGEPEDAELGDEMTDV
# Experimental: as §1, §2
# DPH5 = tested on: DPH5; parameters: species or system human; details: 200 μM free compound 6, mixed Jurkat and Ramos cell lysates, versus DMSO solvent control
# Experimental: as §1, §2
structure (smiles),measurement,setting,value
"NCCCNc1nc(N)c2ncn([C@@H]3O[C@H](CSCC[C@H](N)C(=O)O)[C@@H](O)[C@H]3O)c2n1 [Compound 6, (S)-2-amino-4-((((2S,3S,4R,5R)-5-(6-amino-2-((3-aminopropyl)amino)-9H-purin-9-yl)-3,4-dihydroxytetrahydrofuran-2-yl)methyl)thio)butanoic acid]",% Competition,SETD7,94.1%
same,% Competition,SMYD5,95.9%
same,% Competition,DPH5,50.0%
